Experimental data taken from US9790178B2, “Pyrrolidinyl urea, thiourea, guanidine and cyanoguanidine compounds as TrkA kinase inhibitors” (Array BioPharma Inc., priority 2012, dated 2017).

How the values were obtained:
[1] = biological target: T1, His-tagged recombinant human TrkA (Homo sapiens, UniProt P04629); assay: TrkA LanthaScreen Eu Kinase Binding Assay; conditions: averaged IC50 values; read-out: TrkA enzyme IC50
T1 construct: 6HIS tagged cytoplasmic domain from Invitrogen, Catalog No. PV3144; purchased Invitrogen PV3144
Procedure: TrkA binding activity was determined in a TrkA LanthaScreen™ Eu Kinase Binding Assay. 5 nM His-tagged recombinant human TrkA (6HIS tagged cytoplasmic domain from Invitrogen, Catalog No. PV3144) was incubated with 4 nM Alexa-Fluor® Tracer 236 (Invitrogen Cat. No. PV5592), 2 nM biotinylated anti-His (Invitrogen Cat. No. PV6090), and 2 nM europium-labeled Streptavidin (Invitrogen Cat. No. PV5899), in buffer (25 mM MOPS, pH 7.5, 5 mM MgCl2, 0.005% Triton X-100). Three fold serial dilutions of compounds of the invention in DMSO were added to a final percentage of 2% DMSO. After 60-minute incubation at 22° C., the reaction was measured using the EnVision mutlimode plate reader (PerkinElmer) via TR-FRET dual wavelength detection at […]. The percent of control was calculated using a ratiometric emission factor. The IC50 values were determined by fitting a four parameter model to the percent of control data.
Table A provides averaged IC50 values for compounds of the invention when tested in the assay of Example A, where A represents an averaged IC50 value <100 nM; and B represents an averaged IC50 value from 100 to 1,000 nM.

c-RAF = assay: KinaseProfiler off-target kinase profiling; assay type: biochemical; conditions: 10 μM, ATP near Km
Procedure: (§1) A representative compound of the invention (Example 20) was tested for off-target kinase activity at a concentration of 10 μM by Millipore, Inc. in their KinaseProfiler™ service against all the kinases available in their full kinase panel. The compound was run in duplicate at a concentration of ATP near the Km for each individual kinase according to Millipore's specifications. The results are shown in Table B. Data are reported as percent of control (POC) and are the average of the two replicates.

Pim-2 = biological target: T2, Pim-2 (Homo sapiens, UniProt Q9P1W9); assay: KinaseProfiler off-target kinase profiling; assay type: biochemical; conditions: 10 μM, ATP near Km
T2 construct: purchased Millipore, Inc. (KinaseProfiler service)
Procedure: as §1

MuSK = biological target: T3, MuSK (Homo sapiens, UniProt O15146); assay: KinaseProfiler off-target kinase profiling; assay type: biochemical; conditions: 10 μM, ATP near Km
T3 construct: purchased Millipore, Inc. (KinaseProfiler service)
Procedure: as §1

PKCmu = biological target: T4, PKCmu (Homo sapiens, UniProt Q15139); assay: KinaseProfiler off-target kinase profiling; assay type: biochemical; conditions: 10 μM, ATP near Km
T4 construct: purchased Millipore (KinaseProfiler service)
Procedure: as §1

EphB4 = biological target: T5, EphB4 (Homo sapiens, UniProt P54760); assay: KinaseProfiler off-target kinase profiling; assay type: biochemical; conditions: 10 μM, ATP near Km
T5 construct: purchased Millipore, Inc. (KinaseProfiler service)
Procedure: as §1

WNK3 = biological target: T6, WNK3 (Homo sapiens, UniProt Q9BYP7); assay: KinaseProfiler off-target kinase profiling; assay type: biochemical; conditions: 10 μM, ATP near Km
T6 construct: purchased Millipore, Inc. (KinaseProfiler service)
Procedure: as §1

STK33 = biological target: T7, STK33 (Homo sapiens, UniProt Q9BYT3); assay: KinaseProfiler off-target kinase profiling; assay type: biochemical; conditions: 10 μM, ATP near Km
T7 construct: purchased Millipore, Inc. (KinaseProfiler service)
Procedure: as §1

EphA7 = biological target: T8, EphA7 (Homo sapiens, UniProt Q15375); assay: KinaseProfiler off-target kinase profiling; assay type: biochemical; conditions: 10 μM, ATP near Km
T8 construct: purchased Millipore, Inc. (KinaseProfiler service)
Procedure: as §1

AMPK(A1/B1/G1) = biological target: T9, AMPK(A1/B1/G1) (Homo sapiens, UniProt Q13131); assay: KinaseProfiler off-target kinase profiling; assay type: biochemical; conditions: 10 μM, ATP near Km
T9 construct: purchased Millipore, Inc. (KinaseProfiler service)
Procedure: as §1

MRCKalpha = biological target: T10, MRCKalpha (Homo sapiens, UniProt Q5VT25); assay: KinaseProfiler off-target kinase profiling; assay type: biochemical; conditions: 10 μM, ATP near Km
T10 construct: purchased Millipore, Inc. (KinaseProfiler service)
Procedure: as §1

GRK5 = biological target: T11, GRK5 (Homo sapiens, UniProt P34947); assay: KinaseProfiler off-target kinase profiling; assay type: biochemical; conditions: 10 μM, ATP near Km
T11 construct: purchased Millipore, Inc. (KinaseProfiler service)
Procedure: as §1

PKCeta = biological target: T12, PKCeta (Homo sapiens, UniProt P24723); assay: KinaseProfiler off-target kinase profiling; assay type: biochemical; conditions: 10 μM, ATP near Km
T12 construct: purchased Millipore, Inc. (KinaseProfiler service)
Procedure: as §1

PKCepsilon = biological target: T13, PKCepsilon (Homo sapiens, UniProt Q02156); assay: KinaseProfiler off-target kinase profiling; assay type: biochemical; conditions: 10 μM, ATP near Km
T13 construct: purchased Millipore, Inc. (KinaseProfiler service)
Procedure: as §1

EphA3 = biological target: T14, EphA3 (Homo sapiens, UniProt P29320); assay: KinaseProfiler off-target kinase profiling; assay type: biochemical; conditions: 10 μM, ATP near Km
T14 construct: purchased Millipore, Inc. (KinaseProfiler service)
Procedure: as §1

PKAC-alpha = biological target: T15, PKAC-alpha (Homo sapiens, UniProt P17612); assay: KinaseProfiler off-target kinase profiling; assay type: biochemical; conditions: 10 μM, ATP near Km
T15 construct: purchased Millipore, Inc. (KinaseProfiler service)
Procedure: as §1

LKB1 = biological target: T16, LKB1 (Homo sapiens, UniProt Q15831); assay: KinaseProfiler off-target kinase profiling; assay type: biochemical; conditions: 10 μM, ATP near Km
T16 construct: purchased Millipore, Inc. (KinaseProfiler service)
Procedure: as §1

ROCK-II = biological target: T17, ROCK-II (Homo sapiens, UniProt O75116); assay: KinaseProfiler off-target kinase profiling; assay type: biochemical; conditions: 10 μM, ATP near Km
T17 construct: purchased Millipore (KinaseProfiler service)
Procedure: as §1

PKCdelta = biological target: T18, PKCdelta (Homo sapiens, UniProt Q05655); assay: KinaseProfiler off-target kinase profiling; assay type: biochemical; conditions: 10 μM, ATP near Km
T18 construct: purchased Millipore, Inc. (KinaseProfiler service)
Procedure: as §1

p38delta = biological target: T19, p38delta (Homo sapiens, UniProt O15264); assay: KinaseProfiler off-target kinase profiling; assay type: biochemical; conditions: 10 μM, ATP near Km
T19 construct: purchased Millipore, Inc. (KinaseProfiler service)
Procedure: as §1

IRR = biological target: T20, IRR (Homo sapiens, UniProt P14616); assay: KinaseProfiler off-target kinase profiling; assay type: biochemical; conditions: 10 μM, ATP near Km
T20 construct: purchased Millipore, Inc. (KinaseProfiler service)
Procedure: as §1

MKNK2 = biological target: T21, MKNK2 (Homo sapiens, UniProt Q9HBH9); assay: KinaseProfiler off-target kinase profiling; assay type: biochemical; conditions: 10 μM, ATP near Km
T21 construct: purchased Millipore, Inc. (KinaseProfiler service)
Procedure: as §1

PKCtheta = biological target: T22, PKCtheta (Homo sapiens, UniProt Q04759); assay: KinaseProfiler off-target kinase profiling; assay type: biochemical; conditions: 10 μM, ATP near Km
T22 construct: purchased Millipore (KinaseProfiler service)
Procedure: as §1

JNK1alpha1 = biological target: T23, JNK1alpha1 (Homo sapiens, UniProt P45983); assay: KinaseProfiler off-target kinase profiling; assay type: biochemical; conditions: 10 μM, ATP near Km
T23 construct: purchased Millipore, Inc. (KinaseProfiler service)
Procedure: as §1

RIPK2 = biological target: T24, RIPK2 (Homo sapiens, UniProt O43353); assay: KinaseProfiler off-target kinase profiling; assay type: biochemical; conditions: 10 μM, ATP near Km
T24 construct: purchased Millipore (KinaseProfiler service)
Procedure: as §1

PDGFRalpha = biological target: T25, PDGFRalpha (Homo sapiens, UniProt P16234); assay: KinaseProfiler off-target kinase profiling; assay type: biochemical; conditions: 10 μM, ATP near Km
T25 construct: purchased Millipore, Inc. (KinaseProfiler service)
Procedure: as §1

p38alpha = biological target: T26, p38alpha (Homo sapiens, UniProt Q16539); assay: KinaseProfiler off-target kinase profiling; assay type: biochemical; conditions: 10 μM, ATP near Km
T26 construct: purchased Millipore, Inc. (KinaseProfiler service)
Procedure: as §1

DCAMKL2 = biological target: T27, DCAMKL2 (Homo sapiens, UniProt Q8N568); assay: KinaseProfiler off-target kinase profiling; assay type: biochemical; conditions: 10 μM, ATP near Km
T27 construct: purchased Millipore, Inc. (KinaseProfiler service)
Procedure: as §1

EphA1 = biological target: T28, EphA1 (Homo sapiens, UniProt P21709); assay: KinaseProfiler off-target kinase profiling; assay type: biochemical; conditions: 10 μM, ATP near Km
T28 construct: purchased Millipore, Inc. (KinaseProfiler service)
Procedure: as §1

PrKX = biological target: T29, PrKX (Homo sapiens, UniProt P51817); assay: KinaseProfiler off-target kinase profiling; assay type: biochemical; conditions: 10 μM, ATP near Km
T29 construct: purchased Millipore (KinaseProfiler service)
Procedure: as §1

AKT2 = biological target: T30, AKT2 (Homo sapiens, UniProt P31751); assay: KinaseProfiler off-target kinase profiling; assay type: biochemical; conditions: 10 μM, ATP near Km
T30 construct: purchased Millipore, Inc. (KinaseProfiler service)
Procedure: as §1

[2] = system: off-target kinases (panel of about 230 other kinases); assay: KinaseProfiler full kinase panel, overall selectivity; assay type: biochemical; conditions: 10 μM concentration
Procedure: as §1
Such a drug profile would represent a safer approach to treating pain, inflammation, cancer and certain skin diseases than has been previously reported.

T5 sequence (P54760 16-987): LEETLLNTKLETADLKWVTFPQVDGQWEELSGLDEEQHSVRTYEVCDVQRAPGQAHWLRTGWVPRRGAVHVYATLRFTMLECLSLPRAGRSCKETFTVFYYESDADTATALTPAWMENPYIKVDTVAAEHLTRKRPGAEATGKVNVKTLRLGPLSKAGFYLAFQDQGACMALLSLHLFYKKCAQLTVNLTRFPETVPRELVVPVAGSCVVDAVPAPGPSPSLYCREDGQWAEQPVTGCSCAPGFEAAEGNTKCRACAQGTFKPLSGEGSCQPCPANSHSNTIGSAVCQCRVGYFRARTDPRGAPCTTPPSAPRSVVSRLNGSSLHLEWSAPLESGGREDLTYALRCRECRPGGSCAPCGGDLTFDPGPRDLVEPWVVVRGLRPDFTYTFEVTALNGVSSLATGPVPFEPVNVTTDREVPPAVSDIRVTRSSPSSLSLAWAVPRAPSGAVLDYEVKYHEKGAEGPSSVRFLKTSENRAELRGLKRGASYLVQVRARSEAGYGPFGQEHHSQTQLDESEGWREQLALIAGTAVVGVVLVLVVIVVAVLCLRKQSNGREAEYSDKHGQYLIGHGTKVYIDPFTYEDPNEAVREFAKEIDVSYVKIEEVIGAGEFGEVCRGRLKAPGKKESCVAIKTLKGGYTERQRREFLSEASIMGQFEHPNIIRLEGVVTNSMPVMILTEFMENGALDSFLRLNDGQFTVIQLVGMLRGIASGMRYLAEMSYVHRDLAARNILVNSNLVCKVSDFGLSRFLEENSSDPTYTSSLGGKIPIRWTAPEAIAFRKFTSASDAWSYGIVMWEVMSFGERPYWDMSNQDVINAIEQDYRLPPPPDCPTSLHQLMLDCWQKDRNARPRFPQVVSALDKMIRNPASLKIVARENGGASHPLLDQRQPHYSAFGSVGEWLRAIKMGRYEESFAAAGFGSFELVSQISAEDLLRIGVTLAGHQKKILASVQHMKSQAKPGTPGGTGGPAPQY
T1 sequence (P04629 440-796 limits assumed): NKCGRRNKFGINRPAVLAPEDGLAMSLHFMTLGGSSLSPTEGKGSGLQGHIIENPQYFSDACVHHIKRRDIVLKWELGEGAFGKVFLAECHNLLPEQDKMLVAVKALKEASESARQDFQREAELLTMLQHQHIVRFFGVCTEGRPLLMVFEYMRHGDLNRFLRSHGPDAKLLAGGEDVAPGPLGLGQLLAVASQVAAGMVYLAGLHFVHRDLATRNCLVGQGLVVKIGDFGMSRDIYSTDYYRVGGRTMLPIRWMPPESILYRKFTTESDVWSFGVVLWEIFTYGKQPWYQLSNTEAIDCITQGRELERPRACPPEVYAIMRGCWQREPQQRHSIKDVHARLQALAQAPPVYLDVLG
T25 sequence (P16234 24-1089): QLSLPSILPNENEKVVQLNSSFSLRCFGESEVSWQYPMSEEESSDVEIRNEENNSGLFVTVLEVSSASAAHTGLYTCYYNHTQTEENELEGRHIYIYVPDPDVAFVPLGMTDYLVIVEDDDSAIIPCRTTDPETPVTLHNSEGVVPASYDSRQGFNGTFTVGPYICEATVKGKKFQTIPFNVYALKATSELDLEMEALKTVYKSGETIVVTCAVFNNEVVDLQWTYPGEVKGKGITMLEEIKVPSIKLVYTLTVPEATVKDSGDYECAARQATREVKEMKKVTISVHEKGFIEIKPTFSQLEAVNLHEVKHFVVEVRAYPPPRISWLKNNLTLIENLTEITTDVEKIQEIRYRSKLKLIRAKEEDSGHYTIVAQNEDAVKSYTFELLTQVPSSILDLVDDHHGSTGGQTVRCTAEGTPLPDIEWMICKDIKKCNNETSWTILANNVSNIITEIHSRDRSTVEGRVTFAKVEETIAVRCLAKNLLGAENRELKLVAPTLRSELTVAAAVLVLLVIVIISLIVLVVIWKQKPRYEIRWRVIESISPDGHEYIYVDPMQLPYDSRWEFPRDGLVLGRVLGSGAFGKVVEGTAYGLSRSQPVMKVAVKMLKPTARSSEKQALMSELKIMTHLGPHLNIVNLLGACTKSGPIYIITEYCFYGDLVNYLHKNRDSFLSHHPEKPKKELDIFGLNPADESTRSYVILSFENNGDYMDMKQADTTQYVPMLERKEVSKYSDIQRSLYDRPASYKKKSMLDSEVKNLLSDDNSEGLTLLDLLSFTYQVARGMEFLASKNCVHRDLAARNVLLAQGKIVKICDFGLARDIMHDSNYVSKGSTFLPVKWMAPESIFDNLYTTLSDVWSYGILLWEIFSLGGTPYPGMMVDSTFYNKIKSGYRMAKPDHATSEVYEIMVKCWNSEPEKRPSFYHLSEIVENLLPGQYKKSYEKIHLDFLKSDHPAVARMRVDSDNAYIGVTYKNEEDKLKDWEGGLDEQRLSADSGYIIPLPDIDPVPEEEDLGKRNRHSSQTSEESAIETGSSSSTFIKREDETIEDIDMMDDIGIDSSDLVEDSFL
T12 sequence (P24723 whole entry): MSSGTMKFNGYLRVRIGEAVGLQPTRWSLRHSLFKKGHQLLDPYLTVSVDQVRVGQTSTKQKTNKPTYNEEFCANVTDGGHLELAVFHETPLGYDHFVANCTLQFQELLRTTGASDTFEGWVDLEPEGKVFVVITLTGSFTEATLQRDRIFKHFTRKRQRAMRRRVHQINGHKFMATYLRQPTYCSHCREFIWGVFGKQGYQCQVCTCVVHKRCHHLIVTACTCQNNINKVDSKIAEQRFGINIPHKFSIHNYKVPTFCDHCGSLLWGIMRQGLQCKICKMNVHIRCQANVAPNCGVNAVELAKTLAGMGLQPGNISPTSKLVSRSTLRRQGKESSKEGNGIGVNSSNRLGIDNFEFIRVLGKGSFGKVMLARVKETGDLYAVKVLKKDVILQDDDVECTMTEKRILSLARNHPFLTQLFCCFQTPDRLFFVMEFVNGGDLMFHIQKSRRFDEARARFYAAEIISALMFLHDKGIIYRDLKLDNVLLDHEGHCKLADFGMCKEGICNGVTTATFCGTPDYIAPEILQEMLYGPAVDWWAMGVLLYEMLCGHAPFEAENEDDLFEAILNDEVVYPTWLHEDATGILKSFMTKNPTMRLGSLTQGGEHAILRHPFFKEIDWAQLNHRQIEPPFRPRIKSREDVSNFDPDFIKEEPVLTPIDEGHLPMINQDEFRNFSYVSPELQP
T11 sequence (P34947 whole entry): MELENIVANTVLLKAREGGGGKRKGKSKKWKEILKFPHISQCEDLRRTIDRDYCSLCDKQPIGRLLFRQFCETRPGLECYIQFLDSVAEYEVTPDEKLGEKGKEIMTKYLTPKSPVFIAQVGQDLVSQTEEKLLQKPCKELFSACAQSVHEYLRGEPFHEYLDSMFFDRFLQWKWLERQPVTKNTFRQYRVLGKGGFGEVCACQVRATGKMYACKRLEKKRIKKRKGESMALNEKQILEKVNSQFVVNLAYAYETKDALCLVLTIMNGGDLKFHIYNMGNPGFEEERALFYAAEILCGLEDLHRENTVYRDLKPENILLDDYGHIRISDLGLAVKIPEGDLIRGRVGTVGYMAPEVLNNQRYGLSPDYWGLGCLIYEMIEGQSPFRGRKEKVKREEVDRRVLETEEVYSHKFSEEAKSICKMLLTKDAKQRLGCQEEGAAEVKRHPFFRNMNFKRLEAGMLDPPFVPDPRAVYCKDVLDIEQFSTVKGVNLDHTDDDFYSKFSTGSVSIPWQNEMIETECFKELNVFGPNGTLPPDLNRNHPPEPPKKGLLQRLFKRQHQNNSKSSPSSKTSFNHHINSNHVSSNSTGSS
T29 sequence (P51817 whole entry): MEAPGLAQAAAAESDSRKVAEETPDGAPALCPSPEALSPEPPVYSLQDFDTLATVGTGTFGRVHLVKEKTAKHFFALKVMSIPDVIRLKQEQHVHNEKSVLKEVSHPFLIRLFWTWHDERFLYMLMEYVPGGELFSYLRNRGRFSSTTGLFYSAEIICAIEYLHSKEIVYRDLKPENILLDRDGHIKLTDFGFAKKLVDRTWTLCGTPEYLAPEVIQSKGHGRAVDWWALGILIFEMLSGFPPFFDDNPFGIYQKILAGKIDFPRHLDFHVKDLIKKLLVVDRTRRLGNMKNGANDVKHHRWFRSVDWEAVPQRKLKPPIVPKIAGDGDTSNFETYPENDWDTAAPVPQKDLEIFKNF
T26 sequence (Q16539 whole entry): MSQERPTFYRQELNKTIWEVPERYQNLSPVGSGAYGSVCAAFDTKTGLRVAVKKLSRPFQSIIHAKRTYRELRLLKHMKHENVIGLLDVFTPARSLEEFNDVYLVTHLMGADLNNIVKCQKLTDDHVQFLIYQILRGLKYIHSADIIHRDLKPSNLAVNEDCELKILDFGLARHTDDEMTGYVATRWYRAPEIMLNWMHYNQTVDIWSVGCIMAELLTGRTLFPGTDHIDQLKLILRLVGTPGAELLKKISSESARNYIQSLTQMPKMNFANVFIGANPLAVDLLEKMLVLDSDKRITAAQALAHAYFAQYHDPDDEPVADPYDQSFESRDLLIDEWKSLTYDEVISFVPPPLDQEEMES
T7 sequence (Q9BYT3 whole entry): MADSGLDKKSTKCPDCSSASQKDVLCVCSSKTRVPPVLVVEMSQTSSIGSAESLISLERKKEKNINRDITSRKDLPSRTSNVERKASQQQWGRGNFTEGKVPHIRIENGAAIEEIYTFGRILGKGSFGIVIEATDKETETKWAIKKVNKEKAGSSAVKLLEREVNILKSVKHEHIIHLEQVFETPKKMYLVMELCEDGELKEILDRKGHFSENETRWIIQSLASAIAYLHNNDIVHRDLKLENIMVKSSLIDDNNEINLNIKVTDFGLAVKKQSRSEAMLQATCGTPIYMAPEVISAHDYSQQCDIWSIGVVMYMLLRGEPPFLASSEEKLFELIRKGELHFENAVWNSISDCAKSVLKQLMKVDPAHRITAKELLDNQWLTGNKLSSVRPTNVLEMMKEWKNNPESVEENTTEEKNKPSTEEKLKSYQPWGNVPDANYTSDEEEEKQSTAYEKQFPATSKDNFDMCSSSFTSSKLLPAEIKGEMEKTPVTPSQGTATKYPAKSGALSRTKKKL

What does the source list for `COCCN1C[C@@H](NC(=O)Nc2c(-c3ccccc3)nc3c(C)nccn23)[C@H](c2ccc(F)c(F)c2)C1` [Example 20, 1-((3S,4R)-4-(3,4-difluorophenyl)-1-(2-methoxyethyl)pyrrolidin-3-yl)-3-(8-methyl-2-phenylimidazo[1,2-a]pyrazin-3-yl)urea]?
IC50 [1]: < 0.1 µM; Avg. POC (c-RAF): 118.5 POC; Avg. POC (Pim-2): 122.5 POC; Avg. POC (MuSK): 108.5 POC; Avg. POC (PKCmu): 100.5 POC; Avg. POC (EphB4): 102 POC; Avg. POC (WNK3): 115.5 POC; Avg. POC (STK33): 109.5 POC; Avg. POC (EphA7): 104.5 POC; Avg. POC (AMPK(A1/B1/G1)): 108.5 POC; Avg. POC (MRCKalpha): 101.5 POC; Avg. POC (GRK5): 108 POC; Avg. POC (PKCeta): 105.5 POC; Avg. POC (PKCepsilon): 107.5 POC; Avg. POC (EphA3): 98 POC; Avg. POC (PKAC-alpha): 114 POC; Avg. POC (LKB1): 105 POC; Avg. POC (ROCK-II): 122 POC; Avg. POC (PKCdelta): 106.5 POC; Avg. POC (p38delta): 105 POC; Avg. POC (IRR): 96 POC; Avg. POC (MKNK2): 103 POC; Avg. POC (PKCtheta): 111.5 POC; Avg. POC (JNK1alpha1): 105 POC; Avg. POC (RIPK2): 97.5 POC; Avg. POC (PDGFRalpha): 105.5 POC; Avg. POC (p38alpha): 97.5 POC; Avg. POC (DCAMKL2): 126.5 POC; Avg. POC (EphA1): 99 POC; Avg. POC (PrKX): 120.5 POC; Avg. POC (AKT2): 131 POC; selectivity for TrkA (and TrkB) versus other kinases in the panel [2]: largely inactive against off-target kinases
